What follows are cell lines tested with N[C@@H]1CCCN(c2c(/C=C3\SC(=O)NC3=O)cccc2-c2ccccc2)C1 [AZD1208] + CS(=O)(=O)N1CCN(Cc2cc3nc(-c4cccc5[nH]ncc45)nc(N4CCOCC4)c3s2)CC1 [Pictilisib] (partner 1 µM) (assay: relative viability (nuclei count vs DMSO), 5 days (fraction); higher = more cells survive). Conditions: first compound 0.08 µM.
Method in brief: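 Dosing by pin tool came one day after lung cancer cell lines were seeded in 1536-well plates, using either one drug or a fixed anchor-drug dose plus five library-drug doses (not always all listed) in √10 steps. After 5 days, nuclei were counted on 4× images. Relative viability is treated-well nuclei count divided by vehicle-well nuclei count, and values are medians of duplicate plates.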
Cell Line NCI-H727 has a relative viability of 0.355. Work on NCI-H1734 yielded a relative viability of 0.393. NCI-H2405 was tested, and the relative viability was 0.394. NCI-H1395 showed a relative viability of 0.694. With 201T the relative viability was 0.644. For NCI-H1915, the relative viability was 0.874. Work on HCC-827 yielded a relative viability of 1.07. LXF-289 was tested, and the relative viability was 0.706. NCI-H2347 showed a relative viability of 0.467. NCI-H650 showed a relative viability of 0.83. In the case of NCI-H1651, the relative viability is reported as 0.395. EPLC-272H showed a relative viability of 0.362. In the case of NCI-H23, the relative viability is reported as 0.413. NCI-H1792 gave a relative viability of 0.255. Work on NCI-H1355 yielded a relative viability of 0.419. Work on NCI-H322M yielded a relative viability of 0.494. In the case of NCI-H1437, the relative viability is reported as 0.369. NCI-H1755 gave a relative viability of 0.377. Work on NCI-H2085 yielded a relative viability of 0.418. HCC-15 was tested, and the relative viability was 0.611. In the case of NCI-H1793, the relative viability is reported as 0.362. Cell Line PC-3 [JPC-3] has a relative viability of 0.788. With EKVX the relative viability was 0.395. Work on LC-2-ad yielded a relative viability of 0.397. In the case of NCI-H1944, the relative viability is reported as 0.33.

Same assay, conditions: first compound 0.253 µM
Work on HCC-44 yielded a relative viability of 0.463. With LU99A the relative viability was 0.294. In the case of BEN, the relative viability is reported as 0.447. With HARA the relative viability was 0.373. HCC-78 showed a relative viability of 0.206. NCI-H441 showed a relative viability of 0.427. LCLC-97TM1 was tested, and the relative viability was 0.175. A-427 gave a relative viability of 0.664. With NCI-H460 the relative viability was 0.322. For NCI-H727, the relative viability was 0.297. NCI-H1734 was tested, and the relative viability was 0.373. NCI-H2405 gave a relative viability of 0.397. For NCI-H1395, the relative viability was 0.618. 201T was tested, and the relative viability was 0.641. NCI-H1915 gave a relative viability of 0.899. For HCC-827, the relative viability was 1.15. Work on LXF-289 yielded a relative viability of 0.724. Cell Line NCI-H2347 has a relative viability of 0.782. Work on NCI-H650 yielded a relative viability of 0.783. With NCI-H1651 the relative viability was 0.556. EPLC-272H showed a relative viability of 0.278. NCI-H23 was tested, and the relative viability was 0.561. NCI-H1792 was tested, and the relative viability was 0.272. With NCI-H1355 the relative viability was 0.39. Cell Line NCI-H322M has a relative viability of 0.466. Work on NCI-H1437 yielded a relative viability of 0.388. For NCI-H1755, the relative viability was 0.441. In the case of NCI-H2085, the relative viability is reported as 0.459. With HCC-15 the relative viability was 0.679. Cell Line NCI-H1793 has a relative viability of 0.212. With PC-3 [JPC-3] the relative viability was 0.762. EKVX gave a relative viability of 0.421. Work on LC-2-ad yielded a relative viability of 0.446. Work on NCI-H1944 yielded a relative viability of 0.345.

Same assay, conditions: first compound 0.8 µM
With HCC-44 the relative viability was 0.372. For LU99A, the relative viability was 0.289. BEN was tested, and the relative viability was 0.414. Cell Line HARA has a relative viability of 0.452. For HCC-78, the relative viability was 0.198. In the case of NCI-H441, the relative viability is reported as 0.34. Cell Line A-427 has a relative viability of 0.597. With NCI-H460 the relative viability was 0.289. Work on NCI-H727 yielded a relative viability of 0.262. For NCI-H1734, the relative viability was 0.347. In the case of NCI-H2405, the relative viability is reported as 0.333. Cell Line NCI-H1395 has a relative viability of 0.553. For 201T, the relative viability was 0.649. Cell Line NCI-H1915 has a relative viability of 0.832. In the case of HCC-827, the relative viability is reported as 0.992. Cell Line LXF-289 has a relative viability of 0.73. NCI-H2347 was tested, and the relative viability was 0.558. In the case of NCI-H650, the relative viability is reported as 0.793. For NCI-H1651, the relative viability was 0.394. Cell Line EPLC-272H has a relative viability of 0.349. Work on NCI-H23 yielded a relative viability of 0.327. Cell Line NCI-H1792 has a relative viability of 0.258. NCI-H1355 gave a relative viability of 0.35. Work on NCI-H322M yielded a relative viability of 0.463. For NCI-H1437, the relative viability was 0.271. NCI-H1755 showed a relative viability of 0.368. NCI-H2085 gave a relative viability of 0.36. For HCC-15, the relative viability was 0.524. NCI-H1793 showed a relative viability of 0.257. In the case of PC-3 [JPC-3], the relative viability is reported as 0.672. In the case of EKVX, the relative viability is reported as 0.349. For LC-2-ad, the relative viability was 0.405. In the case of NCI-H1944, the relative viability is reported as 0.306.

Same assay, conditions: first compound 2.53 µM
Work on HCC-44 yielded a relative viability of 0.46. Work on LU99A yielded a relative viability of 0.35. Cell Line BEN has a relative viability of 0.387. With HARA the relative viability was 0.286. Work on HCC-78 yielded a relative viability of 0.195. Work on NCI-H441 yielded a relative viability of 0.314. In the case of LCLC-97TM1, the relative viability is reported as 0.121. With A-427 the relative viability was 0.74. NCI-H460 showed a relative viability of 0.308. In the case of NCI-H727, the relative viability is reported as 0.264. Cell Line NCI-H1734 has a relative viability of 0.343. NCI-H2405 gave a relative viability of 0.373. NCI-H1395 was tested, and the relative viability was 0.554. Cell Line 201T has a relative viability of 0.62. NCI-H1915 showed a relative viability of 0.849. Cell Line HCC-827 has a relative viability of 0.95. Cell Line LXF-289 has a relative viability of 0.699. NCI-H2347 showed a relative viability of 0.495. NCI-H650 showed a relative viability of 0.589. NCI-H1651 was tested, and the relative viability was 0.38. With EPLC-272H the relative viability was 0.324. For NCI-H23, the relative viability was 0.358. NCI-H1792 gave a relative viability of 0.218. In the case of NCI-H1355, the relative viability is reported as 0.349. In the case of NCI-H322M, the relative viability is reported as 0.474. NCI-H1437 was tested, and the relative viability was 0.246. In the case of NCI-H1755, the relative viability is reported as 0.326. NCI-H2085 was tested, and the relative viability was 0.43. HCC-15 gave a relative viability of 0.548. For NCI-H1793, the relative viability was 0.385. PC-3 [JPC-3] gave a relative viability of 0.659. In the case of EKVX, the relative viability is reported as 0.375. Work on LC-2-ad yielded a relative viability of 0.357. NCI-H1944 showed a relative viability of 0.298.

Same assay, conditions: first compound 8 µM
Work on HCC-44 yielded a relative viability of 0.458. LU99A was tested, and the relative viability was 0.236. Work on BEN yielded a relative viability of 0.373. With HARA the relative viability was 0.363. Cell Line HCC-78 has a relative viability of 0.205. NCI-H441 was tested, and the relative viability was 0.305. For LCLC-97TM1, the relative viability was 0.145. A-427 showed a relative viability of 0.533. Cell Line NCI-H460 has a relative viability of 0.37. With NCI-H727 the relative viability was 0.355. Work on NCI-H1734 yielded a relative viability of 0.293. With NCI-H2405 the relative viability was 0.385. NCI-H1395 was tested, and the relative viability was 0.644. For 201T, the relative viability was 0.686. In the case of NCI-H1915, the relative viability is reported as 0.84. In the case of HCC-827, the relative viability is reported as 0.784. Cell Line LXF-289 has a relative viability of 0.724. NCI-H2347 showed a relative viability of 0.495. Work on NCI-H650 yielded a relative viability of 0.589. For NCI-H1651, the relative viability was 0.408. EPLC-272H showed a relative viability of 0.271. For NCI-H23, the relative viability was 0.335. NCI-H1792 showed a relative viability of 0.199. Work on NCI-H1355 yielded a relative viability of 0.306. NCI-H322M was tested, and the relative viability was 0.547. NCI-H1437 was tested, and the relative viability was 0.247. In the case of NCI-H1755, the relative viability is reported as 0.283. NCI-H2085 gave a relative viability of 0.564. Work on HCC-15 yielded a relative viability of 0.515. For NCI-H1793, the relative viability was 0.276. PC-3 [JPC-3] gave a relative viability of 0.684. EKVX gave a relative viability of 0.365. Work on LC-2-ad yielded a relative viability of 0.417. Work on NCI-H1944 yielded a relative viability of 0.277.

Source: the supplement of paper PMC10307832
